The test system of data set [1] is patients receiving SSRI or SNRI treatment for major depressive disorder. Put plainly: Retrospective review of patients receiving SSRI or SNRI treatment for major depressive disorder: late-appearing anhedonic symptoms. Format: in vivo. The settings on record: individual patient. From the text:
Although in the majority of so afflicted patients the diagnosis will be apparent during this interval, it should be understood that iatrogenic anhedonia may appear earlier or later during any course of treatment with medications that increase serotonin transmission efficiency with or without similar increases in the efficiency and availability of norepinephrine. The rather substantial number of patients suffering from the condition over diverse population samples may be postulated to be due to a genetic predisposition for the condition.
Patients in whom SSRIs produced excellent remission of major depressive disorder for the period shown in the 5th column
The result of decreased dopaminergic efficiency and/or availability may be dysphoric interference with the ability to experience the normal range of positive affect over the range from mild interest to pleasant excitement, and from ordinary contentment to great joy. Such decreased dopaminergic transmission efficiency may be caused by agents that block the serotonin transporter alone, and/or those that block both the serotonin transporter and the norepinephrine transporter, and/or those that increase the synthesis and release of both norepinephrine and serotonin and any mechanism whereby the efficiency of serotonergic transmission is enhanced.

Data set [2] relates to patients afflicted with anhedonia. The data set can be described thus: Treatment of iatrogenic anhedonia in patients with agents enhancing dopaminergic availability and/or efficiency. Format: in vivo. The settings on record: about 2.5 mg prn, no more than once daily, on as few as two to five days per week.
Where [3] appears, read: period for which the SSRI produced excellent remission of major depressive disorder.

Regarding `CNCCC(Oc1ccc(C(F)(F)F)cc1)c1ccccc1` (stereo not drawn) [fluoxetine], the “SSRI duration before new symptoms” value was found to be 2 years in data set [1] (setting [3]) and 1 year in data set [1] (period of excellent remission, some patients 10 years intermittent (stopped Rx each time anomie experienced)).
Take `CN[C@H]1CC[C@@H](c2ccc(Cl)c(Cl)c2)c2ccccc21` [sertraline]: the “SSRI duration before new symptoms” value in data set [1] (setting [3]) turned out to be 2 years.
On the same count and under the same terms, the figure for `Fc1ccc([C@@H]2CCNC[C@H]2COc2ccc3c(c2)OCO3)cc1` [paroxetine] is 10 years.
For the compound `COC(=O)[C@H](c1ccccc1)[C@H]1CCCCN1` [dexmethylphenidate], the improvement of anhedonia entry in data set [2] was “Satisfactory and ongoing improvement”.
For the compound `CN(C)CCCC1(c2ccc(F)cc2)OCc2cc(C#N)ccc21` (stereo not drawn) [citalopram], the “SSRI duration before new symptoms” value in data set [1] (setting [3]) is 6 months.
